Measurements published in patent US6147100A, “Pyrrolidine derivatives having phospholipase A2 inhibitory activity” (Shionogi & Co., Ltd., priority 1997, dated 2000).

Columns and labels:
[1] = target: T1, cPLA2 (Homo sapiens, UniProt P47712); assay: cPLA2 Inhibitory Activity; assay type: biochemical; details: 1-palmitoyl-2-[14C]-arachidonoyl-sn-glycero-3-phosphocholine 2.5 μM, sn-1,2-dioleoylglycerol 1.25 μM; pH 7.5, 15 min at 37° C.
T1 sequence (P47712 1-749): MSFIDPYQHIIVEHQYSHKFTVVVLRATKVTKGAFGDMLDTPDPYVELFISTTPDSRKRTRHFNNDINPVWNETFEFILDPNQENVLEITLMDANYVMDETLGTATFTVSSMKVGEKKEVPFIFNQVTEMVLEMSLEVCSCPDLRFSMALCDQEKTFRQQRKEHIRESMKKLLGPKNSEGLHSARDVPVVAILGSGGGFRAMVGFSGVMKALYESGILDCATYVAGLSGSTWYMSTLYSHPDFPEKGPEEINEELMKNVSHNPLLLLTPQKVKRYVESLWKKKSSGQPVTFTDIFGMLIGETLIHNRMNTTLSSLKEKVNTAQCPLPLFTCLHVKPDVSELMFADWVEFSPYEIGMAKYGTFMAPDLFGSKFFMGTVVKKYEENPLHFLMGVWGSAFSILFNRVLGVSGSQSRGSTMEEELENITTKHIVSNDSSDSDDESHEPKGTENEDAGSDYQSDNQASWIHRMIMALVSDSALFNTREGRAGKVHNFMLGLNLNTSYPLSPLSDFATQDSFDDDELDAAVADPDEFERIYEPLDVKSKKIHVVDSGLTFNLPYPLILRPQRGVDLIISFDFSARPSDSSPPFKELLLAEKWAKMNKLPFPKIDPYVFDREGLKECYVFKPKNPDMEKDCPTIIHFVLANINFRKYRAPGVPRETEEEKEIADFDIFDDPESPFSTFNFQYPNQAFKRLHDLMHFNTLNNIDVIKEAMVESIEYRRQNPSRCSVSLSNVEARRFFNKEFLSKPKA
Experimental: Test Example 1 cPLA2 Inhibitory Activity The compounds of the present invention were tested for the cPLA2 inhibitory activity according to the method disclosed in […]. Roberts, […], and J. E. Putnam, J. Biol. Chem., 1991, 266, 5268-5272 as outlined below. […] The reaction mixture includes 50 mM HEPES buffer (pH 7.5), 1 mM calcium chloride, 150 mM sodium chloride, 0.1 mg/ml bovine serum albumin, and 1.7 mM dithiothreitol. To the reaction mixture was added the compound of the present invention and the substrate solution. The reaction was allowed to start by adding an enzyme and continued for 15 min at 37° C. The fatty acids released by the reaction were extracted by the method described in V. P. Dole, and H. Meinertz, J. Biol. Chem., 1960, 235, 2595-2599 and its radiation activity was measured on a liquid scintillation counter. Control was obtained by conducting the experiment in the same manner except that a compound of the present invention was not added.

[2] = system: production of prostaglandin E2 by human fibroblasts; assay: Inhibition of Production of Prostaglandin E2 in Human Fibroblasts (IL-1 stimulation); assay type: cell-based; details: Fibroblast; human fibroblasts under stimulation with IL-1
Experimental: Test Example 2 Inhibition of Production of Prostaglandin E2 in Human Fibroblasts.
In order to examine the availability of the composition for inhibiting cytosolic phospholipase A2 (cPLA2) on the cells, the compounds of the present invention were tested for the effect on the production of prostaglandin E2 by human fibroblasts under the stimulation with IL-1 according to the method of J. M. Dayer et al (CACHECTIN/TUMOR NECROSIS FACTOR STIMULATES COLLAGENASE AND PROSTAGLANDIN E2 PRODUCTION BY HUMAN SYNOVIAL CELLS AND DERMAL FIBROBLASTS; J. M. Dayer, B, Beutler and A, Cerami, J. EXP. Med., 1985, 162, 2163-2168.).

SMILES: Nc1ccccc1C(=O)c1ccccc1C(=O)N1C[C@H](OCc2ccccc2-c2ccccc2)C[C@H]1CNC(=O)c1ccc(/C=C2\SC(=O)NC2=O)cc1 [Compound A-23]
- IC50 [1]: 460 nM
- IC50 [2]: 1200 nM

SMILES: O=C1NC(=O)/C(=C/c2ccc(C(=O)NC[C@@H]3C[C@@H](OCc4ccccc4-c4ccccc4)CN3C(=O)c3sccc3C(=O)c3ccccc3)cc2)S1 [Compound A-12]
- IC50 [1]: 3100 nM
- IC50 [2]: 100 nM

SMILES: O=C1NC(=O)/C(=C/c2ccc(C(=O)NC[C@@H]3C[C@@H](OCc4ccccc4Br)CN3C(=O)c3ccccc3C(=O)c3ccc(F)cc3)cc2)S1 [Compound A-33]
- IC50 [1]: 59 nM
- IC50 [2]: 460 nM

SMILES: O=C1NC(=S)S/C1=C\c1ccc(C(=O)NC[C@@H]2C[C@@H](OCc3ccccc3-c3ccccc3)CN2C(=O)c2ccccc2C(=O)c2ccc(F)cc2)cc1 [Compound A-20]
- IC50 [1]: 300 nM
- IC50 [2]: 350 nM

SMILES: CC(C)c1cccc(-c2ccccc2)c1O[C@@H]1C[C@@H](CNC(=O)c2ccc(/C=C3\SC(=O)NC3=O)cc2)N(C(=O)c2ccccc2C(=O)c2ccc(F)cc2)C1 [Compound A-104]
- IC50 [1]: 38 nM
- IC50 [2]: 1300 nM

SMILES: O=C1NC(=O)/C(=C/c2ccc(C(=O)NC[C@H]3C[C@@H](OCc4ccccc4-c4ccccc4)CN3C(=O)c3ccccc3C(=O)c3ccc(F)cc3)cc2)S1 [Compound Q-2]
- IC50 [1]: 1810 nM
- IC50 [2]: 1400 nM

SMILES: O=C1NC(=O)/C(=C/c2ccc(C(=O)NC[C@@H]3C[C@@H](OCc4ccccc4-c4ccccc4)CN3C(=O)c3ccccc3C(=O)c3ccc(F)cc3)cc2)S1 [Compound A-16]
- IC50 [1]: 79 nM
- IC50 [2]: 260 nM

SMILES: O=C1NC(=O)/C(=C/c2ccc(C(=O)NC[C@@H]3C[C@@H](Oc4ccc5cc(-c6ccccc6)ccc5c4)CN3C(=O)c3ccccc3C(=O)c3ccc(F)cc3)cc2)S1 [Compound A-79]
- IC50 [1]: 20 nM
- IC50 [2]: 310 nM

SMILES: O=C1NC(=O)/C(=C/c2ccc(C(=O)NC[C@@H]3C[C@@H](Oc4ccccc4-c4ccc5ccccc5c4)CN3C(=O)c3ccccc3C(=O)c3ccc(F)cc3)cc2)S1 [Compound A-95]
- IC50 [1]: 76 nM
- IC50 [2]: 390 nM

SMILES: O=C1NC(=O)/C(=C/c2ccc(C(=O)NC[C@@H]3C[C@@H](OCc4ccccc4-c4cc5ccccc5o4)CN3C(=O)c3ccccc3C(=O)c3ccc(F)cc3)cc2)S1 [Compound A-40]
- IC50 [1]: 36 nM
- IC50 [2]: 610 nM

SMILES: O=C1NC(=O)/C(=C/c2ccc(C(=O)NC[C@@H]3C[C@@H](OCc4ccccc4I)CN3C(=O)c3ccccc3C(=O)c3ccc(F)cc3)cc2)S1 [Compound A-34]
- IC50 [1]: 71 nM
- IC50 [2]: 480 nM

SMILES: CN(Cc1ccccc1-c1ccccc1)[C@@H]1C[C@@H](CNC(=O)c2ccc(/C=C3\SC(=O)NC3=O)cc2)N(C(=O)c2ccccc2C(=O)c2ccc(F)cc2)C1 [Compound M-6]
- IC50 [1]: 140 nM
- IC50 [2]: 1500 nM

SMILES: O=C1NC(=S)S/C1=C\c1ccc(C(=O)NC[C@@H]2C[C@@H](SCc3ccccc3-c3ccccc3)CN2C(=O)c2ccccc2C(=O)c2ccc(F)cc2)cc1 [Compound I-6]
- IC50 [1]: 71 nM
- IC50 [2]: 260 nM

SMILES: O=C1NC(=S)S/C1=C\c1ccc(S(=O)(=O)NC[C@@H]2C[C@@H](OCc3ccccc3-c3ccccc3)CN2C(=O)c2ccccc2C(=O)c2ccc(F)cc2)s1 [Compound A-61]
- IC50 [2]: 970 nM

SMILES: O=C1NC(=O)/C(=C/c2ccc(/C=C/C[C@@H]3C[C@@H](OCc4ccccc4-c4ccccc4)CN3C(=O)c3ccccc3C(=O)c3ccc(F)cc3)cc2)S1 [Compound E-14]
- IC50 [1]: 98 nM
- IC50 [2]: 5600 nM

SMILES: CC(C)CN(C(c1ccccc1)c1ccccc1)[C@@H]1C[C@@H](CNC(=O)/C=C/c2ccc(/C=C3\SC(=O)NC3=O)cc2)N(C(=O)c2ccccc2C(=O)c2ccc(F)cc2F)C1 [Compound M-21]
- IC50 [1]: 2.1 nM
- IC50 [2]: 310 nM

SMILES: O=C1NC(=O)/C(=C/c2ccc(C(=O)NC[C@@H]3C[C@@H](OCc4ccccc4-c4ccccc4)CN3C(=O)c3cccc4c3C(=O)c3ccccc3-4)cc2)S1 [Compound A-26]
- IC50 [1]: 1000 nM
- IC50 [2]: 170 nM

SMILES: O=C1NC(=O)/C(=C/c2ccc(COC[C@@H]3C[C@@H](OCc4ccccc4-c4ccccc4)CN3C(=O)c3ccccc3C(=O)c3ccc(F)cc3)cc2)S1 [Compound C-1]
- IC50 [1]: 350 nM
- IC50 [2]: 2300 nM

SMILES: O=C1NC(=O)/C(=C/c2ccc(CN(C[C@@H]3C[C@@H](OCc4ccccc4-c4ccccc4)CN3C(=O)c3ccccc3C(=O)c3ccc(F)cc3)C(=O)c3ccccc3)cc2)S1 [Compound G-9]
- IC50 [1]: 1300 nM

SMILES: O=C1NC(=O)/C(=C/C2CCN(C(=O)[C@@H]3C[C@@H](SCc4ccccc4-c4ccccc4)CN3C(=O)c3ccccc3C(=O)c3ccc(F)cc3)CC2)S1 [Compound J-5]
- IC50 [1]: 8600 nM

SMILES: CC(C)CN(Cc1ccccc1-c1ccccc1)[C@@H]1C[C@@H](CNC(=O)/C=C/c2ccc(/C=C3\SC(=O)NC3=O)cc2)N(C(=O)c2ccccc2C(=O)c2ccc(F)cc2)C1 [Compound M-19]
- IC50 [1]: 3.1 nM

SMILES: CN(C(=O)[C@@H]1C[C@@H](OCc2ccccc2-c2ccccc2)CN1C(=O)c1ccccc1C(=O)c1ccc(F)cc1)c1ccc(/C=C2\SC(=S)NC2=O)cc1 [Compound G-11]
- IC50 [1]: 4000 nM

SMILES: O=C1NC(=O)/C(=C/c2ccc(C(=O)NC[C@@H]3C[C@@H](OCc4ccccc4-c4ccccc4)CN3C(=O)/C=C\C(=O)c3ccccc3)cc2)S1 [Compound A-8]
- IC50 [1]: 24000 nM

SMILES: CC(=O)N(Cc1ccc(/C=C2\SC(=O)NC2=O)cc1)C[C@@H]1C[C@@H](OCc2ccccc2-c2ccccc2)CN1C(=O)c1ccccc1C(=O)c1ccc(F)cc1 [Compound G-7]
- IC50 [1]: 2800 nM

SMILES: CC(C)c1cccc(Br)c1O[C@@H]1C[C@@H](CNC(=O)c2ccc(/C=C3\SC(=O)NC3=O)cc2)N(C(=O)c2ccccc2C(=O)c2ccc(F)cc2)C1 [Compound A-100]
- IC50 [2]: 320 nM

SMILES: O=C1NC(=O)/C(=C/c2ccc(C(=O)NC[C@@H]3C[C@@H](OCc4cccc(-c5ccc6ccccc6c5)c4)CN3C(=O)c3ccccc3C(=O)c3ccc(F)cc3)cc2)S1 [Compound A-42]
- IC50 [1]: 140 nM

SMILES: O=C1NC(=S)S/C1=C\c1ccc(S(=O)(=O)NC[C@@H]2C[C@@H](OCc3ccccc3-c3ccccc3)CN2C(=O)c2ccccc2C(=O)c2ccc(F)cc2)cc1 [Compound A-63]
- IC50 [2]: 900 nM

SMILES: O=C1NC(=O)/C(=C/c2cccc(C(=O)NC[C@@H]3C[C@@H](OCc4ccccc4-c4ccccc4)CN3C(=O)c3ccccc3C(=O)c3ccc(F)cc3)c2)S1 [Compound A-56]
- IC50 [1]: 2500 nM

SMILES: O=C1NC(=O)C(CCCc2ccc(C(=O)NC[C@@H]3C[C@@H](OCc4ccccc4-c4ccccc4)CN3C(=O)c3ccccc3C(=O)c3ccc(F)cc3)cc2)S1 (stereo partly shown) [Compound A-51]
- IC50 [1]: 180 nM

SMILES: CCOc1cccc(-c2ccccc2O[C@@H]2C[C@@H](CNC(=O)c3ccc(/C=C4\SC(=O)NC4=O)cc3)N(C(=O)c3ccccc3C(=O)c3ccc(F)cc3)C2)c1 [Compound A-110]
- IC50 [1]: 100 nM

SMILES: O=C1NC(=O)/C(=C/c2ccc(C(=O)NCC[C@@H]3C[C@@H](OCc4ccccc4-c4ccccc4)CN3C(=O)c3ccccc3C(=O)c3ccc(F)cc3)cc2)S1 [Compound F-2]
- IC50 [1]: 4700 nM

SMILES: COc1cccc(-c2cccc(O[C@@H]3C[C@@H](CNC(=O)c4ccc(/C=C5\SC(=O)NC5=O)cc4)N(C(=O)c4ccccc4C(=O)c4ccc(F)cc4)C3)c2)c1 [Compound A-99]
- IC50 [1]: 37 nM

SMILES: O=C1NC(=O)/C(=C/c2ccc(/C=C/[C@@H]3C[C@@H](OCc4ccccc4-c4ccccc4)CN3C(=O)c3ccccc3C(=O)c3ccc(F)cc3)s2)S1 [Compound E-8]
- IC50 [1]: 1400 nM

SMILES: O=C1NC(=O)/C(=C/c2ccc(C(=O)NC[C@@H]3C[C@@H](Oc4ccc5c6c4CCCN6CCC5)CN3C(=O)c3ccccc3C(=O)c3ccc(F)cc3)cc2)S1 [Compound A-92]
- IC50 [1]: 57 nM

SMILES: O=C(/C=C/C#C/C=C1\SC(=O)NC1=O)NC[C@@H]1C[C@@H](OCc2ccccc2-c2ccccc2)CN1C(=O)c1ccccc1C(=O)c1ccc(F)cc1 [Compound A-66]
- IC50 [1]: 210 nM
